Measurements reported in PubChem BioAssay AID270 (DTP/NCI, 2004).
“And” between values parts separate entries of the source, which are not always exact repeats. Equal entries are not always repeated. Records with an inconclusive call do not appear.

Tested on: BDF1 mice, s.c. Lewis lung carcinoma, T/C %
Experiment: NCI In Vivo Anticancer Drug Screen. Data for tumor model Lewis Lung Carcinoma (subcutaneous) in B6D2F1 (BDF1) mice
How it was run: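 Antitumor effect in vivo is scored from survival or tumor burden, reported as treated relative to vehicle controls.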

`CC1([CH2][Hg][I])COCC([CH2][Hg][I])O1` (stereo unspecified) was tested, and the T/C (endpoint: mean tumor weight, dose: 5.0 mg/kg/injection, schedule: Q01DX011 (ip), vehicle: saline, higher = larger tumour) was 63 % of control, the T/C (endpoint: mean tumor weight, dose: 10.0 mg/kg/injection, schedule: Q01DX011 (ip), vehicle: saline, higher = larger tumour) was 42 % of control and the T/C (endpoint: mean tumor weight, dose: 20.0 mg/kg/injection, schedule: Q01DX011 (ip), vehicle: saline, higher = larger tumour) was 52 % of control. The T/C (endpoint: mean tumor weight, dose: 40.0 mg/kg/injection, schedule: Q01DX011 (ip), vehicle: saline, higher = larger tumour) was 39 % of control.

`Cc1nc(N)c(C)c(C(=O)O)n1` was tested, and the T/C (endpoint: median survival time, dose: 50.0 mg/kg/injection, schedule: Q01DX009 (ip), vehicle: water, higher = longer survival) was 113 % of control, the T/C (endpoint: median survival time, dose: 100.0 mg/kg/injection, schedule: Q01DX009 (ip), vehicle: water, higher = longer survival) was 117 % of control and the T/C (endpoint: median survival time, dose: 200.0 mg/kg/injection, schedule: Q01DX009 (ip), vehicle: water, higher = longer survival) was 116 % of control.

`C[C@H](N)C(=O)N[C@@H]1[C@H]2C(=C(O)C[C@@H](O)[C@@H]2O)C(=O)O[C@@H]1C` was tested, and the T/C (endpoint: mean tumor weight, dose: 300.0 mg/kg/injection, schedule: Q01DX011 (ip), vehicle: saline, higher = larger tumour) was 83 % of control, the T/C (endpoint: mean tumor weight, dose: 600.0 mg/kg/injection, schedule: Q01DX011 (ip), vehicle: saline, higher = larger tumour) was 60 % of control and the T/C (endpoint: mean tumor weight, dose: 1200.0 mg/kg/injection, schedule: Q01DX011 (ip), vehicle: saline, higher = larger tumour) was 89 % of control.

In the case of `C[C@@H]1CCC[C@@H](NC(=O)N(CCCl)N=O)C1`, the T/C (endpoint: median survival time, dose: 4.68 mg/kg/injection, schedule: Q01DX009 (ip), vehicle: Klucel (hydroxypropylcellulose) (HPC), higher = longer survival) was 97 % of control, the T/C (endpoint: median survival time, dose: 9.37 mg/kg/injection, schedule: Q01DX009 (ip), vehicle: Klucel (hydroxypropylcellulose) (HPC), higher = longer survival) was 98 % of control and the T/C (endpoint: median survival time, dose: 18.75 mg/kg/injection, schedule: Q01DX009 (ip), vehicle: Klucel (hydroxypropylcellulose) (HPC), higher = longer survival) was 108 % of control.

`COc1ccc(OCC(O)CN2CCN(c3ccc(Cl)cc3)CC2)cc1` (stereo unspecified) was tested, and the T/C (endpoint: median survival time, dose: 12.5 mg/kg/injection, schedule: Q01DX009 (ip), vehicle: Klucel (hydroxypropylcellulose) (HPC), higher = longer survival) was 90 % of control, the T/C (endpoint: median survival time, dose: 25.0 mg/kg/injection, schedule: Q01DX009 (ip), vehicle: Klucel (hydroxypropylcellulose) (HPC), higher = longer survival) was 87 % of control and the T/C (endpoint: median survival time, dose: 50.0 mg/kg/injection, schedule: Q01DX009 (ip), vehicle: Klucel (hydroxypropylcellulose) (HPC), higher = longer survival) was 96 % of control. For the same molecule, the T/C (endpoint: median survival time, dose: 100.0 mg/kg/injection, schedule: Q01DX009 (ip), vehicle: Klucel (hydroxypropylcellulose) (HPC), higher = longer survival) was 90 % of control and the T/C (endpoint: median survival time, dose: 200.0 mg/kg/injection, schedule: Q01DX009 (ip), vehicle: Klucel (hydroxypropylcellulose) (HPC), higher = longer survival) was 89 % of control.

In the case of `O=[N+]([O-])c1ccc2c(N=Nc3c(O)ccc4ccccc34)c(O)cc(S(=O)(=O)O)c2c1`, the T/C (endpoint: mean tumor weight, dose: 180.0 mg/kg/injection, schedule: Q01DX011 (ip), vehicle: saline, higher = larger tumour) was 59 % of control, the T/C (endpoint: mean tumor weight, dose: 265.0 mg/kg/injection, schedule: Q01DX011 (ip), vehicle: saline, higher = larger tumour) was 50 % of control and the T/C (endpoint: median survival time, dose: 50.0 mg/kg/injection, schedule: Q01DX009 (ip), vehicle: saline, higher = longer survival) was 111 % of control. The T/C (endpoint: median survival time, dose: 100.0 mg/kg/injection, schedule: Q01DX009 (ip), vehicle: saline, higher = longer survival) was 98 % of control and the T/C (endpoint: median survival time, dose: 200.0 mg/kg/injection, schedule: Q01DX009 (ip), vehicle: saline, higher = longer survival) was 95 % of control.

`Cc1ccc(NC(=O)N(CCCl)N=O)cc1NC(=O)N(CCCl)N=O` was tested, and the T/C (endpoint: median survival time, dose: 3.12 mg/kg/injection, schedule: Q01DX009 (ip), vehicle: other, higher = longer survival) was 93 % of control and the T/C (endpoint: median survival time, dose: 6.25 mg/kg/injection, schedule: Q01DX009 (ip), vehicle: other, higher = longer survival) was 87 % of control.

For `CCOc1ccc(Nc2ncnc3nc[nH]c23)cc1CN(CCCl)CCCl`, the T/C (endpoint: mean tumor weight, dose: 1.2 mg/kg/injection, schedule: Q01DX011 (ip), vehicle: other, higher = larger tumour) was 54 % of control and the T/C (endpoint: mean tumor weight, dose: 2.3 mg/kg/injection, schedule: Q01DX011 (ip), vehicle: other, higher = larger tumour) was 46 % of control.

With `O=c1ccn(C2OC(CO)C(O)C2O)c(=O)[nH]1` (stereo unspecified) the T/C (endpoint: median survival time, dose: 0.2 mg/kg/injection, schedule: Q01DX011 (adlb), vehicle: water, higher = longer survival) was 97 % of control and 119 % of control, the T/C (endpoint: median survival time, dose: 0.6 mg/kg/injection, schedule: Q01DX011 (adlb), vehicle: water, higher = longer survival) was 103 % of control and the T/C (endpoint: median survival time, dose: 1.0 mg/kg/injection, schedule: Q01DX011 (adlb), vehicle: water, higher = longer survival) was 86 % of control. The T/C (endpoint: median survival time, dose: 1.5 mg/kg/injection, schedule: Q01DX011 (adlb), vehicle: water, higher = longer survival) was 106 % of control and the T/C (endpoint: median survival time, dose: 2.0 mg/kg/injection, schedule: Q01DX011 (adlb), vehicle: water, higher = longer survival) was 76 % of control and 100 % of control.

In the case of `CCCCCCCCCCCC(c1ccccc1)[N+](C)(C)C` (stereo unspecified), the T/C (endpoint: median survival time, dose: 0.5 mg/kg/injection, schedule: Q01DX009 (ip), vehicle: saline, higher = longer survival) was 102 % of control, the T/C (endpoint: median survival time, dose: 1.0 mg/kg/injection, schedule: Q01DX009 (ip), vehicle: saline, higher = longer survival) was 96 % of control and the T/C (endpoint: median survival time, dose: 2.0 mg/kg/injection, schedule: Q01DX009 (ip), vehicle: saline, higher = longer survival) was 93 % of control.

`COc1ccccc1NC(=O)N(CCCl)N=O` was tested, and the T/C (endpoint: median survival time, dose: 0.39 mg/kg/injection, schedule: Q01DX009 (ip), vehicle: saline with Tween-80, higher = longer survival) was 95 % of control, the T/C (endpoint: median survival time, dose: 0.78 mg/kg/injection, schedule: Q01DX009 (ip), vehicle: saline with Tween-80, higher = longer survival) was 88 % of control and the T/C (endpoint: median survival time, dose: 1.56 mg/kg/injection, schedule: Q01DX009 (ip), vehicle: saline with Tween-80, higher = longer survival) was 93 % of control. The T/C (endpoint: median survival time, dose: 3.13 mg/kg/injection, schedule: Q01DX009 (ip), vehicle: saline with Tween-80, higher = longer survival) was 98 % of control.

In the case of `CCNC1=C(N2CC2)C(=O)C(NCC)=C(N2CC2)C1=O`, the T/C (endpoint: median survival time, dose: 0.37 mg/kg/injection, schedule: Q01DX009 (ip), vehicle: saline, higher = longer survival) was 115 % of control and the T/C (endpoint: median survival time, dose: 0.75 mg/kg/injection, schedule: Q01DX009 (ip), vehicle: saline, higher = longer survival) was 121 % of control.
